Experimental findings from patent US12071424B2, “IRE1 small molecule inhibitors” (Cornell University, priority 2017, dated 2024) are described below.

In experiment [1] the target is T1, IRE1a (Homo sapiens, UniProt O75460).
T1 construct: purchased SignalChem
Description: In vitro FRET assay (IRE1a cleavage of XBP1 RNA probe). It counts as biochemical. To be noted: 2 nM SignalChem IRE1a, tested as Formic Acid Salt (37: HCl Salt). The protocol: In vitro FRET assay was performed to evaluate the ability of select compounds to inhibit IRE1, the results of which are summarized in Table 3. To perform the in vitro FRET assay, 1× complete assay buffer (CAB: […], 50 mM sodium citrate pH 7.15, 1 mM magnesium acetate, 0.02% tween 20) was used to SignalChem IRE1a protein to a final concentration of 2 nM. Selected compounds were serially diluted with DMSO in a non-binding black 384-well plate for a total of 15 ul in each well. 2 ul of the serially diluted compound or DMSO control were then added to new wells containing 98 ul of 1× CAB, for a total volume of 100 ul, 10 ul of which were then transferred to wells of a new plate. 5 ul of the diluted IRE1a was then added to each well. 5 ul of a […] XBP1 RNA probe was then added to each well. Fluorescence was then read over 30 minutes in kinetic mode (485/515 nm).
Two RNA probes were used, XBP1 wildtype (SEQ ID NO: 2) which is able to be spliced by active IRE1a or XBP1 mutant (SEQ ID NO: 3) which is unable to be spliced. Each probe contained a 5′ 6-FAM modification and a 3′ IOWA black FQ modification. […]

Experiment [2] concerns IRE1a. The experiment in a line: IRE1a Endoribonuclease Nanoluciferase Assay (XBP1 luciferase reporter in 293T cells). It counts as cell-based, human. As to conditions: Homo sapiens, HEK-293T, ER stressor, tested as Formic Acid Salt (37: HCl Salt). The protocol:
Compounds disclosed herein assessed for disruption of IRE1 signaling using a IRE1a Endoribonuclease Nanoluciferase Assay. Briefly, 25×10^5 293T cells were seeded in a 10 cm^2 tissue culture plate. About 24 hours later, the cells were transfected with Effectene. In a 15 mL tube, the following was added: 2 ug XBP1 luciferase reporter plasmid (PGK-Luc2-P2A-XBP1u-Nanoluciferase-Pest); 300 ul EC buffer; and 16 ul Enhancer, followed by incubation at room temp for 5 minutes. Next, 60 ul Effectene (Qiagen 301427) was added, followed by incubation at room temperature for 10 minutes. 2.6 mL cDMEM media was added. Old media was aspirated from the cells, followed by addition of 7 mL fresh media. Full transfection mixture was added dropwise to cells. Cells were incubated for 6 hours, followed by trypsinization, centrifugation and resuspension in 11 mL fresh cDMEM media. 100 uL of cells were plated per a well in a 96 well plate. A day later, ER stressors of choice +/−inhibitors were added. To harvest, media was aspirated from cells completely, then 50 uL 1× passive lysis buffer (Promega: E1941) was added per well and put on shaker (300 rpm) for 30 minutes at room temperature. Cells were centrifuged, and 15 uL sample per well was added to a new, opaque white 384 well plate (Corning 3570). 15 uL OneGlo (nanoluciferase kit, Promega N1630) was added. Plates were spun down, placed on shaker (300 rpm) for 10 minutes. Plates were read on luminometer, 1000 ms integration time per well. 15 uL Stop an Glo (nanoluciferase kit) was added. Plates were spun down, placed on shaker (300 rpm) for 10 minutes. Plates were read on luminometer, 1000 ms second integration time per well. Recordings are provided below in Table 4.

The structures appear in SMILES notation. Bounds are passed on as bounds.

T1 sequence (O75460 19-977): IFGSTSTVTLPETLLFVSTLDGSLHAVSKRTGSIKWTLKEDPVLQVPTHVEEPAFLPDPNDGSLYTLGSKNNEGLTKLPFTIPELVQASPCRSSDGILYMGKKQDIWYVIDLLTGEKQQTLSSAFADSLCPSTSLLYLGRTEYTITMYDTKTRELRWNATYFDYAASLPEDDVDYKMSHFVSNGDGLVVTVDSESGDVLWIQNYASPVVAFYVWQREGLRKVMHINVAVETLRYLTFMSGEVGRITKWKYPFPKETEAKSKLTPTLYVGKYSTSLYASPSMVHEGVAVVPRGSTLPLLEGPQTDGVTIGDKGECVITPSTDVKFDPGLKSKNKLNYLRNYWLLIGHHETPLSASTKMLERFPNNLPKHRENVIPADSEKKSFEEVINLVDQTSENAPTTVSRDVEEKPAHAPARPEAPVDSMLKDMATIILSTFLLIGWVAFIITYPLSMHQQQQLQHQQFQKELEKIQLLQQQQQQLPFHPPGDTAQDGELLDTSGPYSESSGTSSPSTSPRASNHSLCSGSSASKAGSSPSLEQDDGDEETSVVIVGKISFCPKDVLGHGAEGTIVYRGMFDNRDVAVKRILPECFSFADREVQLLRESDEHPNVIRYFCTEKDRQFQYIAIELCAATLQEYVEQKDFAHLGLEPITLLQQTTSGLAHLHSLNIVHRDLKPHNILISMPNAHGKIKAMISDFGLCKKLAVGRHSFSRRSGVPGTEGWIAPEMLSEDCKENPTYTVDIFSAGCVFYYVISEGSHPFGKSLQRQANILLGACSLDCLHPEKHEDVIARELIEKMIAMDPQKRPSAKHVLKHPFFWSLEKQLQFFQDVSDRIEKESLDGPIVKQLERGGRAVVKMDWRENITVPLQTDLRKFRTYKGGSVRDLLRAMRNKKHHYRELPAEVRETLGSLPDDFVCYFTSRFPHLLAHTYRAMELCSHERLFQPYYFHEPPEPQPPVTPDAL

A word on the IC50: it is the concentration that gives 50% inhibition. The EC50 is the concentration giving half of the maximal effect. As for `CCc1cc(-c2ccc(NS(=O)(=O)c3ccccc3Cl)nc2C)cc2cnc(NC3CCC(N(C)C)C[C@@H]3F)nc12` (stereo in doubt) [Compound 151, 2-chloro-N-(5-(2-(((1R,2S,4R)-4-(dimethylamino)-2-fluorocyclohexyl)amino)-8-ethylquinazolin-6-yl)-6-methylpyridin-2-yl)benzenesulfonamide], the half-inhibitory concentration (IC50) on IRE1a [1] was not above 5 nM. For the same compound, the EC50 in the experiment with IRE1a [2] is not above 5 nM.

Turning to `N[C@H]1CC[C@H](Nc2ncc3cc(-c4ccc(NS(=O)(=O)c5ccccc5Cl)cc4)ccc3n2)CC1` [Compound 26, N-(4-(2-(((1r,4r)-4-aminocyclohexyl)amino)quinazolin-6-yl)phenyl)-2-chlorobenzene-sulfonamide], the IC50 on IRE1a [1] was not above 5 nM. The EC50 with IRE1a [2] was not above 5 nM.

With `CCc1cc(-c2cc(NS(=O)(=O)c3ccccc3Cl)no2)cc2cnc(N[C@H]3CC[C@H](N)CC3)nc12` [Compound 44, N-(5-(2-(((1r,4r)-4-aminocyclohexyl)amino)-8-ethylquinazolin-6-yl)isoxazol-3-yl)-2-chlorobenzene-sulfonamide], the IC50 on IRE1a [1] is not above 5 nM. Also, the EC50 in the experiment on IRE1a [2] was not above 5 nM.

For the compound `CCCc1cc(-c2cc(NS(=O)(=O)c3ccccc3Cl)nn2C)cc2cnc(N[C@H]3CC[C@H](N)CC3)nc12` [Compound 47, N-(5-(2-(((1r,4r)-4-aminocyclohexyl)amino)-8-propylquinazolin-6-yl)-1-methyl-1H-pyrazol-3-yl)-2-chlorobenzene-sulfonamide], the IC50 on IRE1a [1] was not above 5 nM. Besides, in the experiment on IRE1a [2], the EC50 lay in the range of 5 to 50 nM.

As for `N[C@H]1CC[C@H](Nc2ncc3cc(-c4ccc(NS(=O)(=O)c5ccccc5Cl)cc4F)ccc3n2)CC1` [Compound 48, N-(4-(2-(((1r,4r)-4-amiocyclohexyl)amino)quinazolin-6-yl)-3-fluorophenyl)-2-chlorobenzene-sulfonamide], the IC50 on IRE1a [1] was not above 5 nM. The EC50 with IRE1a [2] lay in the range of 5 to 50 nM.

`N[C@H]1CC[C@H](Nc2ncc3cc(-c4ncc(NS(=O)(=O)c5ccccc5Cl)cc4F)ccc3n2)CC1` [Compound 51, N-(6-(2-(((1r,4r)-4-aminocyclohexyl)amino)quinazolin-6-yl)-5-fluoropyridin-3-yl)-2-chlorobenzene-sulfonamide]: the IC50 on IRE1a [1] is not above 5 nM. In the experiment with IRE1a [2], the EC50 lay within 50 to 100 nM.

In the case of `N[C@H]1CC[C@H](Nc2ncc3cc(-c4cc(F)c(NS(=O)(=O)c5ccccc5Cl)cc4F)ccc3n2)CC1` [Compound 53, N-(4-(2-(((1r,4r)-4-aminocyclohexyl)amino)quinazolin-6-yl)-2,5-difluorophenyl)-2-chlorobenzene-sulfonamide], the IC50 at IRE1a [1] was not above 5 nM. Besides, the EC50 with IRE1a [2] is not above 5 nM.

Take `N[C@H]1CC[C@H](Nc2ncc3cc(-c4cnc(NS(=O)(=O)c5ccccc5Cl)c(F)c4)ccc3n2)CC1` [Compound 54, N-(5-(2-(((1r,4r)-4-aminocyclohexyl)amino)quinazolin-6-yl)-3-fluoropyridin-2-yl)-2-chlorobenzene-sulfonamide]: the IC50 at IRE1a [1] was not above 5 nM. The EC50 in the experiment on IRE1a [2] was in the range of 5 to 50 nM.

In the case of `N[C@H]1CC[C@H](Nc2ncc3cc(-c4ccc(NS(=O)(=O)c5ccccc5Cl)c(F)c4F)ccc3n2)CC1` [Compound 56, N-(4-(2-(((1r,4r)-4-aminocyclohexyl)amino)quinazolin-6-yl)-2,3-difluorophenyl)-chlorobenzene-sulfonamide], the IC50 on IRE1a [1] was not above 5 nM. Also, in the experiment on IRE1a [2], the EC50 is not above 5 nM.

On to `CCc1cc(-c2ccc(NS(=O)(=O)c3ccccc3Cl)c(F)c2)cc2cnc(N[C@H]3CC[C@H](NC(=O)[C@@H](N)C(C)C)CC3)nc12` [Compound 58, (S)-2-amino-N-((1r,4S)-4-((6-(4-((2-chlorophenyl)sulfonamido)-3-fluorophenyl)-8-ethylquinazolin-2-yl)amino)cyclohexyl)-3-methylbutanamide], for which, in the experiment on IRE1a [2], the EC50 is not above 5 nM.

Take `CCc1cc(-c2ccc(NS(=O)(=O)c3ccccc3Cl)c(F)c2)cc2cnc(N[C@@H]3CC[C@H](N)[C@H](C)C3)nc12` [Compound 70, N-(4-(2-(((1R,3R,4S)-4-amino-3-methylcyclohexyl)amino)-8-ethylquinazolin-6-yl)-2-fluorophenyl)-2-chlorobenzene-sulfonamide]: the EC50 with IRE1a [2] was not above 5 nM.

Consider `CCc1cc(-c2ccc(NS(=O)(=O)c3ccccc3Cl)c(F)c2)cc2cnc(N[C@H]3CCCNC3)nc12` [Compound 73, (S)-2-chloro-N-(4-(8-ethyl-2-(piperidin-3-ylamino)quinazolin-6-yl)-2-fluoropbenyl) benzenesulfon-amide], for which the EC50 with IRE1a [2] is not above 5 nM.

On to `N[C@H]1CC[C@@H](Nc2ncc3cc(-c4ccc(NS(=O)(=O)c5ccccc5Cl)c(F)c4)ccc3n2)C1` [Compound 80, N-(4-(2-(((1R,3S)-3-aminocyclopentyl)amino)quinazolin-6-yl)-2-fluorophenyl)-2-chlorobenzene-sulfonamide], for which the EC50 with IRE1a [2] was in the range of 100 to 10000 nM.

For `CCc1cc(NS(=O)(=O)c2ccccc2Cl)nnc1-c1cc(CC)c2nc(N[C@H]3CC[C@H](N)CC3)ncc2c1` [Compound 96, N-(6-(2-(((1r,4r)-4-aminocyclohexyl)amino)-8-ethylquinazolin-6-yl)-5-ethylpyridazin-3-yl)-2-chlorobenzenesulfonamide], the IC50 on IRE1a [1] was not above 5 nM.

Consider `CCc1cc(-c2ccc(NS(=O)(=O)c3ccccc3Cl)nc2C)cc2cnc(N[C@H]3CC[C@H](N(C)CC(F)(F)F)CC3)nc12` [Compound 126, 2-chloro-N-(5-(8-ethyl-2-(((1r,4r)-4-(methyl(2,2,2-trifluoroethyl)amino)cyclohexyl)amino)quinazolin-6-yl)-6-methylpyridin-2-yl)benzenesulfonamide], for which, at IRE1a [1], the IC50 lay within 50 to 100 nM.

For the compound `COc1nc(NS(=O)(=O)c2ccccc2Cl)ccc1-c1cc(C)c2nc(N[C@H]3CC[C@@H](N(C)C)CC3)ncc2c1` [Compound 139, 2-chloro-N-(5-(2-(((1s,4s)-4-(dimethylamino)cyclohexyl)amino)-8-methylquinazolin-6-yl)-6-methoxypyridin-2-yl)benzenesulfonamide], the IC50 on IRE1a [1] fell in the range of 5 to 50 nM.

Consider `CCc1cc(-c2cc(F)c(NS(=O)(=O)c3ccccc3Cl)nc2OC)cc2cnc(N[C@H]3CC[C@@H](N(C)C)CC3)nc12` [Compound 142, 2-chloro-N-(5-(2-(((1s,4s)-4-(dimethylamino)cyclohexyl)amino)-8-ethylquinazolin-6-yl)-3-fluoro-6-methoxypyridin-2-yl)benzenesulfonamide], for which the IC50 at IRE1a [1] lay within 5 to 50 nM.

Turning to `CCc1cc(-c2ccc(NS(=O)(=O)c3ccccc3Cl)nc2OC)cc2cnc(N[C@H]3CC[C@@](C)(N(C)C)CC3)nc12` [Compound 143, 2-chloro-N-(5-(2-(((1s,4s)-4-(dimethylamino)-4-methylcyclohexyl)amino)-8-ethylquinazolin-6-yl)-6-methoxypyridin-2-yl)benzenesulfonamide], the IC50 at IRE1a [1] was 5 to 50 nM.

Turning to `CCc1cc(-c2cc(F)c(NS(=O)(=O)c3ccccc3Cl)nc2OC)cc2cnc(N[C@H]3CC[C@@](C)(N(C)C)CC3)nc12` [Compound 144, 2-chloro-N-(5-(2-(((1s,4s)-4-(dimethylamino)-4-methylcyclohexyl)amino)-8-ethylquinazolin-6-yl)-3-fluoro-6-methoxypyridin-2-yl)benzenesulfonamide], the IC50 on IRE1a [1] fell in the range of 50 to 100 nM.

As for `COc1nc(NS(=O)(=O)c2ccccc2Cl)c(F)cc1-c1cc(C)c2nc(N[C@H]3CC[C@@H](N(C)C)CC3)ncc2c1` [Compound 147, 2-chloro-N-(5-(2-(((1s,4s)-4-(dimethylamino)cyclohexyl)amino)-8-methylquinazolin-6-yl)-3-fluoro-6-methoxypyridin-2-yl)benzenesulfonamide], the IC50 at IRE1a [1] is 5 to 50 nM.

As for `Cc1nc(NS(=O)(=O)c2ccccc2Cl)c(F)cc1-c1cc(F)c2nc(N[C@H]3CC[C@H](N(C)C)CC3)ncc2c1` [Compound 156, 2-chloro-N-(5-(2-(((1r,4r)-4-(dimethylamino)cyclohexyl)amino)-8-fluoroquinazolin-6-yl)-3-fluoro-6-methylpyridin-2-yl)benzenesulfonamide], at IRE1a [1], the IC50 is 100 to 10000 nM.
